Data reported in US20020131997A1, “Method for treating hematologic disorders with water insoluble 20 (S)-camptothecin” (priority 2000, published 2002).

Columns and labels:
[1] = tested on: Ph-negative bcr/abl-negative CML; assay: Clinical treatment of patients with Ph-negative bcr/abl-negative CML with oral 9NC gelules; type: in vivo, human
Description: (§1) Twenty five patients with hematologic disorders were admitted for the treatment with 9NC. Among them, 9 patients had Philadelphia chromosome (Ph)-negative bcr/abl-negative CML; 8 patients had Philadelphia chromosome (Ph)-positive CML (6 in chronic phase and 2 in accelerated phase); 7 patients had CMML; and one had MDS (RAEB, refractory anemia with excess blasts). Median age of patients was 65 years, ranging from age 29 to age 77. Median white blood cell (WBC) counts was 25.2×10^9/L (range: 4.5-76×10^9/L); and median platelet count was 223×10^9/L (range: 23-1042×10^9/L). Among the patients for the treatment, 14 patients had splenomegaly, with median of 10.5 cms below costal margin (range: 1-13 cms). The 8 patients with Ph-positive CML were previously treated with interferon (IFN). Except for 5 patients, 12 other patients were also previously treated with IFN. Prior to the treatment of the present invention, the patients were off chemotherapy using other anticancer drugs for 2 weeks and recovered from toxicity of that chemotherapy.
(§2) The dosing schedule was designed as the following. The drug product, 9NC gelules, are orally administered into patients for 5 consecutive days every week. Four weeks of treatment with 9NC oral dosage defines one course of treatment. Courses are repeated every 4-6 weeks, depending on patient response and recovery of WBC and platelet counts. The total daily 9NC dose is given in 2 equal divided doses (e.g. 8 a.m. and 8 p.m.).
(§3) The dose of treatment with 9NC was designed to be modified at 5 dose levels according to myelosuppression and extramedullary toxicity. The starting dose schedule at level 0 is 2.0 mg/m^2 9NC orally daily, 5 days every week. Dose level +1 is 2.5 mg/m^2 9NC orally daily, 5 days every week. Dose level +2 is 3.0 mg/m^2 9NC orally daily, 5 days every week. Dose level −1 is 1.5 mg/m^2 9NC orally daily, 5 days every week. Dose level −2 is 1.5 mg/m^2 9NC orally daily, 4 days every week.
(§4) During the course of treatment, if there is no response to 9NC and the patient's hematologic toxicity is less than grade II, the dose level is increase by 1 level. If there is no response to 9NC and the patient's hematologic toxicity is at grade II, the dose level stays at the same level. If there is response to 9NC and the patient's hematologic toxicity is at grade III or IV, the dose level is decreased by 1 level. If there is no response to 9NC and the patient's hematologic toxicity is at grade III or IV, the patient is off the treatment with 9NC.
If low hematologic counts is due to myelosuppression, not disease, subsequent courses can be delayed until WBC >2.0×10^9/L and platelets >80×10^9/L. If low counts are attributed to persistent disease, subsequent courses are started regardless of the counts.
The criteria for response to patients with CML are as follows.
Complete hematologic remission (CHR): Normalization for at least 4 weeks of the bone marrow (less than 5% blasts) and peripheral blood with WBC <10×10^9/L and no peripheral blasts, promyelocytes or myelocytes. This is in addition to disappearance of all signs and symptoms of the disease.
Partial hematologic remission (PHR): CHR except for persistence of immature cells (myelocytes, metamyelocytes), or splenomegaly <50% of pretreatment, or thrombocytosis >450×10^9/L but <50% of pretreatment.
Gelules of 9NC were orally administrated into the 9 patients with Ph-negative bcr/abl-negative CML. The starting dose was 2 mg/m^2 daily for 5 days every week. Doses were adjusted according to myelosuppression and extramedullary toxicity as described above. […] Thus, the objective response (OR) was 6/9.

[2] = Stability of 9NC at room temperature, activity determined by HPLC; type: physicochemical; settings: left at room temperature (25° C.) for 2 months
Method: 9-nitro-20(S)-camptothecin (9NC) was encapsulated in oral dosage of gelules containing 1 mg 9NC by a registered pharmacist. When 9NC is left at room temperature (25° C.) for 2 months, the loss of activity is minimal and has been estimated to be less than 5%+4.6%. Determination of activity has been done by HPLC. The gelules are preferably stored in freezers.

[3] = tested on: mice; assay: Toxicology studies in mice; type: in vivo
[4] = tested on: dogs; assay: Toxicology studies in dogs; type: in vivo
[5] = tested on: Ph-positive CML; assay: Clinical treatment of patients with Ph-positive CML with oral 9NC gelules; type: in vivo, human; settings: of 8 patients
Description: as §1, §2
The dose of treatment with 9NC was designed to be modified at 5 dose levels according to myelosuppression and extramedullary toxicity. The starting dose schedule at level 0 is 2.0 mg/m^2 9NC orally daily, 5 days every week. Dose level +1 is 2.5 mg/m^2 9NC orally daily, 5 days every week. Dose level +2 is 3.0 mg/m^2 9NC orally daily, 5 days every week. Dose level −1 is 1.5 mg/m^2 9NC orally daily, 5 days every week. Dose level −2 is 1.5 mg/m^2 9NC orally daily, 4 days every week. […]

[6] = tested on: MDS of the RAEB type; assay: Clinical treatment of patient with MDS (RAEB type) with oral 9NC gelules; type: in vivo, human; settings: one patient, starting dose 2 mg/m^2 daily for 5 days every week
Description: as §1
as §2, with “The total daily 9NC dose is given in 2 equal divided doses (e.g. 8 a.m. and 8 p.m.).” left out

[7] = tested on: CMML; assay: Clinical treatment of patients with CMML with oral 9NC gelules; type: in vivo, human
Description: as §1, §2, §3, §4
If low hematologic counts is due to myelosuppression, not disease, subsequent courses can be delayed until WBC >2.0×10^9/L and platelets >80×10^9/L. If low counts are attributed to persistent disease, subsequent courses are started regardless of the counts. […]

[8] = of 9 patients, oral, starting dose 2 mg/m^2 daily for 5 days every week

CC[C@@]1(O)C(=O)OCc2c1cc1n(c2=O)Cc2cc3c([N+](=O)[O-])cccc3nc2-1 [9NC, 9-nitro-20(S)-camptothecin]
spleen response ([1]; in all 8 patients with splenomegaly): at least minor spleen response | patients resistant to the treatment [1, 8]: 2 patients | patients stable [1, 8]: 1 patient | patients with complete remission [1, 8]: 2 patients | patients with partial remission [1, 8]: 4 patients | objective response (OR) ([1]; responders/patients, oral, starting dose 2 mg/m^2 daily for 5 days every week): 6/9 | loss of activity [2]: less than 5%+4.6% | primary toxicity [3]: intestinal | primary toxicity [4]: intestinal | tolerability ([4]; 1.0 mg/kg/day, administered for over 2 months): well tolerated | patients who did not show response to the treatment [5]: 6 patients | patients with complete response hematologically and cytogenetically ([5]; oral, starting dose 2 mg/m^2 daily for 5 days every week): 1 patient | patients with minor spleen response ([5]; patient in accelerated phase): 1 patient | response by MDS criteria [6]: complete remission | patients resistant to the treatment ([7]; of 7 patients): 1 patient | patients with hematologic improvement in WBC or splenomegaly ([7]; of 7 patients): 4 patients | patients with partial remission ([7]; of 7 patients, oral, starting dose 2 mg/m^2 daily for 5 days every week): 2 patients | objective response (OR) ([7]; responders/patients): 6/7
